Activity calls are given as the source filed them.
What was measured:
[1] = target: T1, Neuropeptides B/W receptor type 1 (Homo sapiens, UniProt P48145); assay: human NPBW1 receptor blockade, IC50 – cell-based, fluorescence, dose response, set 5, late-stage follow-up (AID 588566); format: functional
T1 sequence (P48145 whole entry): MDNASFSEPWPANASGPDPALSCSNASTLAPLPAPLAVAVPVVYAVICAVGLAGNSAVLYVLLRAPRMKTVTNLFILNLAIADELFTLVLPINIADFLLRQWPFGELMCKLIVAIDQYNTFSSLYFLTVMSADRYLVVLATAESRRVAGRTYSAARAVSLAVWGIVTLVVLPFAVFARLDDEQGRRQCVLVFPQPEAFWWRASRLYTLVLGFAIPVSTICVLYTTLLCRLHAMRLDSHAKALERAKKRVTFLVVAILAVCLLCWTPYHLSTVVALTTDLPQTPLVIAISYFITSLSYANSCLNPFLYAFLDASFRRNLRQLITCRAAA

[2] = target: Melanin-concentrating hormone receptor 1 (Homo sapiens, UniProt Q99705); assay: Late-stage fluorescence-based counterscreen for antagonists of the G-protein coupled receptor 7 (GPR7): cell-based dose response assay to identify antagonists of the melanin-concentrating hormone receptor 1 (MCHR1) Set 5.; format: functional
[3] = target: Vascular endothelial growth factor receptor 2 (Homo sapiens, UniProt P35968); format: functional
[4] = target: Proto-oncogene tyrosine-protein kinase Src (Homo sapiens, UniProt P12931); format: functional;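 note: SRC entry within a kinome-wide kinase profiling panel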
[5] = target: Tyrosine-protein kinase Blk (Homo sapiens, UniProt P51451); format: functional;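 note: obtained as one member of a kinome-wide kinase assay panel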
[6] = target: Vascular endothelial growth factor receptor 3 (Homo sapiens, UniProt P35916); format: functional;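 note: value from a kinome-wide profiling panel, with FLT4 as the panel member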
[7] = target: Mast/stem cell growth factor receptor Kit (Homo sapiens, UniProt P10721); format: functional;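 note: KIT entry within a kinase panel assay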
[8] = target: Macrophage colony-stimulating factor 1 receptor (Homo sapiens, UniProt P07333); format: functional;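 note: value comes from the Navigating the Kinome screening panel, CSF1R member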
[9] = target: Tyrosine-protein kinase Lyn (Homo sapiens, UniProt P07948); format: functional;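 note: lyn as one member of a kinase panel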
[10] = target: Vascular endothelial growth factor receptor 1 (Homo sapiens, UniProt P17948); format: functional;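 note: measured within a kinome-wide profiling panel, FLT1 as the panel member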
[11] = target: Tyrosine-protein kinase Fyn (Homo sapiens, UniProt P06241); format: functional
[12] = target: Tyrosine-protein kinase ABL1 (Homo sapiens, UniProt P00519); format: functional
[13] = target: Tyrosine-protein kinase Lck (Homo sapiens, UniProt P06239); format: functional;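 note: lck was assayed as one member of a kinase panel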
[14] = target: Receptor-type tyrosine-protein kinase FLT3 (Homo sapiens, UniProt P36888); format: functional;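 note: FLT3 was tested as one member of a kinome-wide kinase panel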
[15] = target: T2, Bifunctional protein GlmU (Mycobacterium tuberculosis, UniProt P9WMN3); assay: Inhibitors of Mycobacterial Glucosamine-1-phosphate acetyl transferase (GlmU). Secondary screen.; design: species or system Mycobacterium tuberculosis H37Rv
T2 sequence (P9WMN3 whole entry): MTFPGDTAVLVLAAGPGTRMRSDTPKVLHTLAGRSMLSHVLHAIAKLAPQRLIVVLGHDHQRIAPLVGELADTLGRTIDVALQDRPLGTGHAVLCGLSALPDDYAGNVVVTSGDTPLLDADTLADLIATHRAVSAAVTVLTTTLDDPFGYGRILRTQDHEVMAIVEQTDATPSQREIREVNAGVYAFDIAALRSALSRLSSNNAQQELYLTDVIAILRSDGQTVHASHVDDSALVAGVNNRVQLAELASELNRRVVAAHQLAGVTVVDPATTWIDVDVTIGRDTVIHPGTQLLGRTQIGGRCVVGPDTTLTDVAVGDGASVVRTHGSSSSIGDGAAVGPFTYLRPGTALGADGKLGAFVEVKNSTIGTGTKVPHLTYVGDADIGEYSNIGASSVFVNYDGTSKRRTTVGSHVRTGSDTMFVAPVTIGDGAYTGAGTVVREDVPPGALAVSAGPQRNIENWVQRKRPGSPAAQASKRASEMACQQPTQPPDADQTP

[16] = target: T3, V-type proton ATPase subunit c' (Saccharomyces cerevisiae S288c, UniProt P32842); assay: Dose Response of Small Molecules that Regulate V-ATPase Proton Transport in Yeast using pHLuorin, Cherry Pick 2.; format: functional; conditions: read-out: EC50_MICROM
[17] = target: T4, Kappa-type opioid receptor (Homo sapiens, UniProt P41145); format: functional
[18] = target: T5, Rac GTPase-activating protein 1 (Homo sapiens, UniProt Q9H0H5); assay: blockers of MgcRacGAP-driven Rac1 GTP hydrolysis – biochemical, ADP Hunter fluorescence, primary and confirmatory, confirmation (AID 624330); format: functional
T5 sequence (Q9H0H5 whole entry): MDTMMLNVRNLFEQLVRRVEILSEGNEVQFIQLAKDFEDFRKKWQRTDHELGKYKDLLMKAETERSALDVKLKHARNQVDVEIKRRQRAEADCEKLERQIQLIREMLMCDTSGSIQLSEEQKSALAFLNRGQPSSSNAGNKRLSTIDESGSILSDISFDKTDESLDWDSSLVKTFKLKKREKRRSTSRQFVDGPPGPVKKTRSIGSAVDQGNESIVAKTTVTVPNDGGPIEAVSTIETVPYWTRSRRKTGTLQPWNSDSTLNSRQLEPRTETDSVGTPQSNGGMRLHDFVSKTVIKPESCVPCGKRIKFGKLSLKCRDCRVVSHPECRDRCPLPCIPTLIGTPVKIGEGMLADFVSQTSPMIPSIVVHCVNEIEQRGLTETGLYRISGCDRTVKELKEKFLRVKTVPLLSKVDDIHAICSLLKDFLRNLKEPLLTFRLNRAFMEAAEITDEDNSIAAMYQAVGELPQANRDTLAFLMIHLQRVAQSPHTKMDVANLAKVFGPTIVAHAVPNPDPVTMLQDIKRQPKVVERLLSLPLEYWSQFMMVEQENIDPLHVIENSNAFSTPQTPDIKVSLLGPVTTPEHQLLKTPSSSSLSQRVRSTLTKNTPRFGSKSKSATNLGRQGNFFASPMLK

Escherichia coli [19] = assay: microbe, parasite or virus in culture
[20] = viability loss in HeLa cells – cytotoxicity control for MgcRacGAP inhibitor project, dose response (AID 624300); format: functional
[21] = target: T6, Delta-type opioid receptor (Homo sapiens, UniProt P41143); assay: HTS Image-Based Screen for Antagonists of the DOR Receptor. [Related pubchem assays (depositor defined):AID1777, AID1785, AID1786, AID2133]; format: functional
[22] = target: T3, V-type proton ATPase subunit c'; assay: Dose Response of Small Molecules that Regulate V-ATPase Proton Transport in Yeast using pHLuorin, Cherry Pick 1. [Related pubchem assays (depositor defined):AID504622]; format: functional
[23] = target: T6, Delta-type opioid receptor; assay: HTS Image-Based Screen for Agonists of the DOR Receptor. [Related pubchem assays (depositor defined):AID1777, AID1786, AID2133]; format: functional
[24] = target: T4, Kappa-type opioid receptor; format: functional; remark: listed apart in the source
Escherichia coli [25] = assay: microbe, parasite or virus in culture; remark: listed apart in the source
Mu-type opioid receptor = Mu-type opioid receptor (Homo sapiens, UniProt P35372); assay: HTS Image-Based Screen for Agonists of the MOR Receptor. [Related pubchem assays (depositor defined):AID1777, AID1785, AID1786, AID2133]; format: functional;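 note: imaging of beta-arrestin GFP recruitment into spots after receptor activation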
[26] = target: Heat shock protein HSP 90-alpha (Homo sapiens, UniProt P07900); format: functional, organism-based
[27] = target: T7, Mannose-6-phosphate isomerase (Homo sapiens, UniProt P34949); assay: MPI enzyme activity inhibition – biochemical, fluorescence intensity, coupled assay, primary screen (AID 1209)
T7 sequence (P34949 whole entry): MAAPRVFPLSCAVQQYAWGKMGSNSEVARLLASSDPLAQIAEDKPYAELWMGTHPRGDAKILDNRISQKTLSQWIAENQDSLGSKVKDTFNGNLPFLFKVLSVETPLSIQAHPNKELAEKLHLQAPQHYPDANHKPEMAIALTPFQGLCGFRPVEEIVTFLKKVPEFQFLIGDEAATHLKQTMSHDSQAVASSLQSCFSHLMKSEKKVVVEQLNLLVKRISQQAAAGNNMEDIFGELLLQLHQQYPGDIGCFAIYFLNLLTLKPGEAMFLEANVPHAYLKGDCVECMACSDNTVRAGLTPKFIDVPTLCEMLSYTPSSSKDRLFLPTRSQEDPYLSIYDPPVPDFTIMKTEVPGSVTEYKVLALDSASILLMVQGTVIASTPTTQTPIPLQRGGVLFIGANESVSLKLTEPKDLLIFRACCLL

[28] = target: G-protein coupled receptor 35 (Homo sapiens, UniProt Q9HC97); assay: inhibition of zaprinast-stimulated GPR35 beta-arrestin translocation – imaging, U2OS, beta-arrestin-GFP, zaprinast agonist, primary screen (AID 2058); format: functional;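 note: antagonist potency meaning inhibition of agonist-induced arrestin redistribution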
Melanocortin receptor 4 = Melanocortin receptor 4 (Homo sapiens, UniProt P32245); assay: inhibitors of MC4R cAMP signaling – cell-based, TR-FRET, biased antagonists, dose response (AID 602298); format: functional;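 note: antagonist potency against agonist-stimulated cAMP production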
[29] = non-specific 3'UTR reporter inhibition in Clone20-Shn3RL – cell-based, Renilla luciferase, cherry-picked, counter-screen for Shn3 inhibitor project, dose response (AID 624133); format: functional
[30] = reduction of Shn3 3'UTR-driven luciferase in osteoblasts – cell-based, Clone20 osteoblasts, firefly luciferase, cherry-picked, dose response (AID 624132); format: functional;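 note: firefly luciferase luminescence from reporter carrying the Shn3 3'UTR in osteoblasts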
[31] = cAMP pathway inhibition in counterscreen cell line – TR-FRET cAMP detection, counter-screen for MC4R biased antagonist project, dose response (AID 602305); format: functional, cell-based;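 note: U2OS cells stimulated with forskolin near its EC80 as the cAMP inducer; potency is for inhibition of forskolin-stimulated cAMP signaling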
[32] = loss of viability in HepG2 cells – cell-based, CellTiter-Glo, cherry-picked, cytotoxicity control for Shn3 inhibitor project, dose response (AID 624134); format: functional

T3 sequence (P32842 whole entry): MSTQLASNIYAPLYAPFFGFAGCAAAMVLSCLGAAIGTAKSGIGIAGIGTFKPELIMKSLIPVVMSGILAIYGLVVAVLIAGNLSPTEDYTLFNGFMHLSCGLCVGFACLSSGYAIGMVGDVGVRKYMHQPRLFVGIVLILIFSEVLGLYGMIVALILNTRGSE
T6 sequence (P41143 whole entry): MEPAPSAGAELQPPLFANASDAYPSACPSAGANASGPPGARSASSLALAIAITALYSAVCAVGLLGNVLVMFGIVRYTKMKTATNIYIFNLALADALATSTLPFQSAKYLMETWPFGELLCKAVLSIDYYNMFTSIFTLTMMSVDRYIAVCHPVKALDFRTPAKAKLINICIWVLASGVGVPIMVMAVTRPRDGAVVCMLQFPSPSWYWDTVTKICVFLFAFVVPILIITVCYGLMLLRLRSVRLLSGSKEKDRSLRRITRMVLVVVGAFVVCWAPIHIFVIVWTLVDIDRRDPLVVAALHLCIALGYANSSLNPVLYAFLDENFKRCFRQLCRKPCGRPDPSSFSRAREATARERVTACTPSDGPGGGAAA
T4 sequence (P41145 whole entry): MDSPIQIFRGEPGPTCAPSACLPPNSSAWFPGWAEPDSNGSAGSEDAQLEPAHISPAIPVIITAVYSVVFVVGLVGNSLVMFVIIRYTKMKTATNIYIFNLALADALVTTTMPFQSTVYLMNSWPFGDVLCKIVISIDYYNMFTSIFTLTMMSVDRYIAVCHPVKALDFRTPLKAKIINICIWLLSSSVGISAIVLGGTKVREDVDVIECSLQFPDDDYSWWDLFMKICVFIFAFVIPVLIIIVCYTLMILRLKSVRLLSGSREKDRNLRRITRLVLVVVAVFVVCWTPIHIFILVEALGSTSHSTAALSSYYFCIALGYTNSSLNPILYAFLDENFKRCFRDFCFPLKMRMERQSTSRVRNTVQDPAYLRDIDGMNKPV
Sequence of Tyrosine-protein kinase Blk (P51451 whole entry): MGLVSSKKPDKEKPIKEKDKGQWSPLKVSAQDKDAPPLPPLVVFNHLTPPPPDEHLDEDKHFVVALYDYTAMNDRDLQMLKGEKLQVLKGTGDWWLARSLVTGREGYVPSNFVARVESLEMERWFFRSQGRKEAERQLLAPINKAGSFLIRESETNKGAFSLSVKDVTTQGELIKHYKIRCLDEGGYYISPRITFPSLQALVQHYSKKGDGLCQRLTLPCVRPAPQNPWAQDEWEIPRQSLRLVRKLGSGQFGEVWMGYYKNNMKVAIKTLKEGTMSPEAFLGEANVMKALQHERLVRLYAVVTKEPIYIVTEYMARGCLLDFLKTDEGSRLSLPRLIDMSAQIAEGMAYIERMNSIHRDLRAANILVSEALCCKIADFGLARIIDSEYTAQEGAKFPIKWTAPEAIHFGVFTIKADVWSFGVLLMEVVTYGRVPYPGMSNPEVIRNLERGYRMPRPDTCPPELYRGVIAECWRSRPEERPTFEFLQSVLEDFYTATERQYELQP
Sequence of Proto-oncogene tyrosine-protein kinase Src (P12931 2-536 limits assumed): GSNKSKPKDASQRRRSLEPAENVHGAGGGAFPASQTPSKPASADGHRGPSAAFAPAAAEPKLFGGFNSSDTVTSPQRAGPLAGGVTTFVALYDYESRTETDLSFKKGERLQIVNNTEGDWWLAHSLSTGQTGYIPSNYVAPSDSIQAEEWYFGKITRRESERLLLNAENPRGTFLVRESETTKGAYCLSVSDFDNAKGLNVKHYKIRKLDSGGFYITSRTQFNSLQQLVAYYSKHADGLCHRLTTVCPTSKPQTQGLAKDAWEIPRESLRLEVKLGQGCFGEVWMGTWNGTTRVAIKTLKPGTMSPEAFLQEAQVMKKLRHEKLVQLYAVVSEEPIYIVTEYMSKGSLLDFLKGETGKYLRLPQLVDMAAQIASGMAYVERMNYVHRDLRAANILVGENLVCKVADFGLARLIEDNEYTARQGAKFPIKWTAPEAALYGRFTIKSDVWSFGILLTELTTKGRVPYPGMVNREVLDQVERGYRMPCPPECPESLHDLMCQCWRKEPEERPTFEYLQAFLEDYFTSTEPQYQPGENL
Sequence of Vascular endothelial growth factor receptor 2 (P35968 whole entry): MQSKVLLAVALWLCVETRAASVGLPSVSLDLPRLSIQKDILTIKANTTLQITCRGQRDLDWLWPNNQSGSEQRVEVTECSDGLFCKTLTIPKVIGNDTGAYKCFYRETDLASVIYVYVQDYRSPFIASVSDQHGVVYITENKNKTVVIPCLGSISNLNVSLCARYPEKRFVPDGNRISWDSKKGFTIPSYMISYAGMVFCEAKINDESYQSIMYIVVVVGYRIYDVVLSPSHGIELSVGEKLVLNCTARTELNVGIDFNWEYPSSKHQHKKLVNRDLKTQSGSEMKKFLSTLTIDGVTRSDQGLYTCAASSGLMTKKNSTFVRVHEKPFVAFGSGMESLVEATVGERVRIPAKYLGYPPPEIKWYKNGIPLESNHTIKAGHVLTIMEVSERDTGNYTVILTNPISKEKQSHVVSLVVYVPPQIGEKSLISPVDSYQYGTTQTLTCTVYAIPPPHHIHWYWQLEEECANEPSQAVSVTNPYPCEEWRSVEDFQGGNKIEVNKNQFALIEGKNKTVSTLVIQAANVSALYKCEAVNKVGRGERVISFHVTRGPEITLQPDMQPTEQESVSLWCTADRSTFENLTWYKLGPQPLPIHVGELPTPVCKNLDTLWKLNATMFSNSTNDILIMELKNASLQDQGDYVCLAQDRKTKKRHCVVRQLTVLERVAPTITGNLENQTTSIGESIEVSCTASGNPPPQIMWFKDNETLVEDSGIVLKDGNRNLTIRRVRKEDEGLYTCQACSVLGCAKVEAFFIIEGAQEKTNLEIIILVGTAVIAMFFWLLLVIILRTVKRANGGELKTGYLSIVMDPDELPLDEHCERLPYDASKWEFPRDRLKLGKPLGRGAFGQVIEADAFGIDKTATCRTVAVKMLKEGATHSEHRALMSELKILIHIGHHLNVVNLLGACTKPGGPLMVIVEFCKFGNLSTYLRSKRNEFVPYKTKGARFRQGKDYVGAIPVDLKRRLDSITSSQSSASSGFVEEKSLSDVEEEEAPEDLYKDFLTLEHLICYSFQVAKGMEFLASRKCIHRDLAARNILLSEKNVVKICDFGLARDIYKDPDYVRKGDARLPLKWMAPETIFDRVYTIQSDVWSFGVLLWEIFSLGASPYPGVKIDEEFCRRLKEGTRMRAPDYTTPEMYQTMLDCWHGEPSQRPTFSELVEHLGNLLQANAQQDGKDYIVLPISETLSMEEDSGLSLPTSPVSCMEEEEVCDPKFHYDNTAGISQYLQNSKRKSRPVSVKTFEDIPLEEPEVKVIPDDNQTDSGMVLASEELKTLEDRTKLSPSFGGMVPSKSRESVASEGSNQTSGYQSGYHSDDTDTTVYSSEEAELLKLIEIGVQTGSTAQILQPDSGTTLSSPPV
Sequence of Receptor-type tyrosine-protein kinase FLT3 (P36888 whole entry): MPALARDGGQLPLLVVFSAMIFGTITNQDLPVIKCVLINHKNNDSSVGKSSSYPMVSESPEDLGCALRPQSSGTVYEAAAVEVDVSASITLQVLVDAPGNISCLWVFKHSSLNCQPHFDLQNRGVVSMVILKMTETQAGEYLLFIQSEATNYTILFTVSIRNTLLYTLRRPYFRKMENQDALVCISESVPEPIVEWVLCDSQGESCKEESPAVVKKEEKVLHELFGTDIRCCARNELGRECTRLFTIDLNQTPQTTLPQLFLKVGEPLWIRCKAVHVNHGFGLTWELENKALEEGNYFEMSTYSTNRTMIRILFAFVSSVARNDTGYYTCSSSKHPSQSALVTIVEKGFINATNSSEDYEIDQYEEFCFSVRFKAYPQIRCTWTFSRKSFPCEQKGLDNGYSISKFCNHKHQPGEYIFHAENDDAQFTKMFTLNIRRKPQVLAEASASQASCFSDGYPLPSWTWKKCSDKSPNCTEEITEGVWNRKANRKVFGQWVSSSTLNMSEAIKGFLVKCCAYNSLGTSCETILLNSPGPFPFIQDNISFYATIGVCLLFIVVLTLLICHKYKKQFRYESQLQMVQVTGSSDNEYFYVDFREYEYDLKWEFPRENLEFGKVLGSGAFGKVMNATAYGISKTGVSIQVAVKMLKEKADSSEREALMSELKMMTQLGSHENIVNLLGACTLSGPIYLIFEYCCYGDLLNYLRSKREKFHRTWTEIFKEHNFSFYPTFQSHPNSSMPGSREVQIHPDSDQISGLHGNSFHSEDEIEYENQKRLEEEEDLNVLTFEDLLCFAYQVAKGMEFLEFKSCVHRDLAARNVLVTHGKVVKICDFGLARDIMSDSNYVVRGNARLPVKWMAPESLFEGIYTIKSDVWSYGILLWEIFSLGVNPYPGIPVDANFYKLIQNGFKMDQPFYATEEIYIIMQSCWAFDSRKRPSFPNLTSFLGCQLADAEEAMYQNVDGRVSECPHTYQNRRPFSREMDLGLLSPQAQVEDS
Sequence of Tyrosine-protein kinase Lyn (P07948 whole entry): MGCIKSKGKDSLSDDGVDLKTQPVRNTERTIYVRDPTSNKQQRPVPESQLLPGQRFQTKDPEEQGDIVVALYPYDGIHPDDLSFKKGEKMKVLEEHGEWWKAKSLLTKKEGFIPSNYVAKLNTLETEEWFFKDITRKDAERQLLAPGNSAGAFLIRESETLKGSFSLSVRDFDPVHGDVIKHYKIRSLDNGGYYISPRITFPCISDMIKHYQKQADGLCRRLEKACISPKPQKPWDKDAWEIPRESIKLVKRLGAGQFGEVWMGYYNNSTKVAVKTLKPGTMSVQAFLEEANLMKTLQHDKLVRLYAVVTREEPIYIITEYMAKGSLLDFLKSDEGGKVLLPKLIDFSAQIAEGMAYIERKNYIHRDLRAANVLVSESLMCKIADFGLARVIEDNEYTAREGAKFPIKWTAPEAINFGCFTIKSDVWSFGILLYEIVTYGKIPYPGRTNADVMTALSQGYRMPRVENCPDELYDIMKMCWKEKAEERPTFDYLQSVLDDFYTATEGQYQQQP

In the case of `N#CC(c1ccccc1)c1c(Br)cnn(Cc2cccc3ccccc23)c1=O` (centres undefined), the IC50 [1] is reported as 116 nM (active) and the IC50 [2] is reported as 16400 nM (inactive).

For `Cc1ccc(F)c(NC(=O)Nc2ccc(-c3c(F)ccc4[nH]nc(N)c34)cc2)c1`, the Ki [3] was 7.94 nM (active), the Ki [4] was 501 nM (active) and the Ki [5] was 1580 nM (active). For the same compound, the Ki [6] was 1 nM (active), the Ki [7] was 1 nM (active) and the Ki [8] was 1.26 nM (active). For the same compound, the Ki [9] was 398 nM (active), the Ki [10] was 0.251 nM (active) and the Ki [11] was 501 nM (active). The Ki [12] was 501 nM (active), the Ki [13] was 631 nM (active) and the Ki [14] was 0.794 nM (active).

With `Cc1c(Cl)sn(-c2ccc(Cl)cc2)c1=O` the IC50 [15] was 118000 nM (active), the EC50 [16] was 1400 nM (active) and the EC50 [17] was 6370 nM. The IC50 [18] was 49600 nM (active), the AC50 (Escherichia coli [19]) was 6510 nM (active) and the CC50 [20] was 9780 nM (active). For the same compound, the IC50 [21] was > 32000 nM (inactive), the EC50 [22] was 5190 nM (active) and the EC50 [23] was > 32000 nM (inactive). For the same compound, the EC50 [24] was over 35000 nM, the AC50 (Escherichia coli [25]) was 2640 nM (active) and the EC50 (Mu-type opioid receptor) was > 32000 nM (inactive). The AC50 [26] was < 195 nM (active), the IC50 [27] was > 50000 nM (not active) and the IC50 [28] was 2720 nM (active). For the same compound, the IC50 (Melanocortin receptor 4) was 3750 nM (active), the AC50 [29] was 3850 nM (active) and the AC50 [30] was 728 nM (active). The IC50 [31] was 19600 nM (inactive) and the AC50 [32] was 19800 nM (active).
